Columns and labels:
Assay type in all cases: cell-based, mouse
Arid5A mRNA = Arid5A mRNA expression by qPCR in LPS-stimulated peritoneal macrophages; details: peritoneal macrophages from C57BL/6 mice, LPS (1 g/mL), test agent 20 μM, 2 hours after LPS stimulation, vs absence of CPZ; FIG. 6
Protocol: (§1) Peritoneal macrophages from C57BL/6 mice (aged 6 to 8 weeks) were stimulated with LPS ([…]) in the presence or absence of a test agent (20 μM). The relative expression levels of mRNAs of Arid5A, IL-6, and TNF-α were determined in the stimulated peritoneal macrophages by quantitative PCR (qPCR). The expression level of Arid5A mRNA was determined 2 hours after LPS stimulation. The expression levels of IL-6 mRNA and TNF-α mRNA were determined 2 hours, 6 hours, 12 hours, and 24 hours after LPS stimulation. FIGS. 6 to 8 show the results when chlorpromazine (CPZ) was used as a test agent.

IL-6 mRNA = IL-6 mRNA expression by qPCR in LPS-stimulated peritoneal macrophages; details: LPS (1 g/mL), test agent 20 μM, vs absence of CPZ, FIG. 7
Protocol: as §1

TNF-α mRNA = TNF-α mRNA expression by qPCR in LPS-stimulated peritoneal macrophages; details: LPS (1 g/mL), test agent 20 μM, determined 2, 6, 12 and 24 hours after LPS stimulation, FIG. 8
Protocol: as §1

## CN(C)CCCN1c2ccccc2Sc2ccc(Cl)cc21 [CPZ, chlorpromazine]
Arid5A mRNA
  expression of Arid5A mRNA (qPCR): markedly suppressed
IL-6 mRNA; 2 hours after LPS stimulation
  expression of IL-6 mRNA (qPCR): markedly suppressed
IL-6 mRNA; 6 hours after LPS stimulation
  expression of IL-6 mRNA (qPCR): markedly suppressed
TNF-α mRNA
  expression of TNF-α mRNA (qPCR): no effect

From US20240294910A1, “NOVEL THERAPEUTIC AGENT FOR SEPTICEMIA, AND A METHOD FOR SCREENING FOR SAME” (Chugai Seiyaku Kabushiki Kaisha, priority 2014, published 2024)
